Results reported in patent US9416124B2, “Substituted 2-alkyl-1-OXO-N-phenyl-3-heteroaryl-1,2,3,4-tetrahydroisoquinoline-4-carboxamides for antimalarial therapies” (ST. JUDE CHILDREN'S RESEARCH HOSPITAL, priority 2011, dated 2016).
pEC50: −log10 of the molar value. Read-outs that look alike come from different tables or passages of the source.

Test system: P. falciparum 3D7
Test: P. falciparum drug susceptibility assay (3D7)
Format: cell-based, Plasmodium falciparum
Conditions: for pEC50: 3D7 strain, racemate unless indicated, read-out: 3D7_EC50; for EC50: separated enantiomers, assayed as described in 4a, read-out: Potency (nM, 3D7 strain)
Procedure: Parasites were grown as previously described in Mallari, J. P., Guiguemde, W. A., and Guy, R. K., Antimalarial activity of thiosemicarbazones and purine derived nitriles, Bioorg Med Chem Lett 19 (13), 3546 (2009). […] DMSO inhibitor stock solutions were pin-transferred (V&P Scientific) into the assay plate and background fluorescence was measured in both relevant channels (485 nm /535 nm, 612 nm /665 nm) in an Envision plate reader (PerkinElmer). Then 20 μl of a synchronized culture suspension (1% rings, 10% hematocrit) were added per well, thus making a final hematocrit and parasitemia of 5% and 1% respectively. Assay plates were incubated for 72 h and parasitemia was determined based on a modified protocol. (Smilkstein, M. et al., Simple and inexpensive fluorescence-based technique for high-throughput antimalarial drug screening. Antimicrob Agents Chemother 48 (5), 1803 (2004)). Briefly, 5 μl of mixed DNA dye solution in RPMI (5X SYBR Green I, 1 μM YOYO-3, 1% v/v Triton X-100, 1 mg/ml saponin) were added per well, assay plates were shaken for 30 s at 2000 rpm, incubated in the dark for 4 h, then read as previously described.

Row | Compound | pEC50 (Plasmodium falciparum) | also measured
1 | CC(C)CN1C(=O)c2ccccc2[C@H](C(=O)Nc2ccc(F)c(OC(F)(F)F)c2)[C@H]1c1cccnc1 (racemic) [Example 35, N-(4-fluoro-3-(trifluoromethoxy)phenyl)-2-isobutyl-1-oxo-3-(pyridin-3-yl)-1,2,3,4-tetrahydroisoquinoline-4-carboxamide] | 7.20 | 
2 | N#Cc1cc(F)cc(NC(=O)C2c3ccccc3C(=O)N(CC(F)(F)F)C2c2cn[nH]c2)c1 (single isomer, unassigned; isomer d) [Example 20 d-isomer, d-N-(3-cyano-5-fluorophenyl)-1-oxo-3-(1H-pyrazol-4-yl)-2-(2,2,2-trifluoroethyl)-1,2,3,4-tetrahydroisoquinoline-4-carboxamide] |  | pEC50: 8.10; EC50: 11 nM
3 | CC(C)CN1C(=O)c2ccccc2[C@H](C(=O)Nc2cccc(C#N)c2)[C@H]1c1cccnc1 (racemic) [Example 17, N-(3-cyanophenyl)-2-isobutyl-1-oxo-3-(pyridin-3-yl)-1,2,3,4-tetrahydroisoquinoline-4-carboxamide] | 7.24 | 
4 | O=C(Nc1cccc(OC(F)(F)F)c1)[C@H]1c2ccccc2C(=O)N(CC(F)(F)F)[C@@H]1c1cccnc1 (racemic) [Example 30, 1-oxo-3-(pyridin-3-yl)-2-(2,2,2-trifluoroethyl)-N-(3-(trifluoromethoxy)phenyl)-1,2,3,4-tetrahydroisoquinoline-4-carboxamide] | 7.60 | 
5 | N#Cc1cccc(NC(=O)[C@H]2c3ccccc3C(=O)N(CC(F)(F)F)[C@@H]2c2cccnc2)c1 (racemic) [Example 18, N-(3-cyanophenyl)-1-oxo-3-(pyridin-3-yl)-2-(2,2,2-trifluoroethyl)-1,2,3,4-tetrahydroisoquinoline-4-carboxamide] | 7.62 | 
6 | CC(C)CN1C(=O)c2ccc(F)cc2[C@H](C(=O)Nc2cc(F)cc(C#N)c2)[C@H]1c1cnn(C)c1 (racemic) [Example 48, N-(3-cyano-5-fluorophenyl)-6-fluoro-2-isobutyl-3-(1-methyl-1H-pyrazol-4-yl)-1-oxo-1,2,3,4-tetrahydroisoquinoline-4-carboxamide] | 7.72 | 
7 | N#Cc1cc(NC(=O)C2c3ccccc3C(=O)N(CC(F)(F)F)C2c2cccnc2)ccc1F (single isomer, unassigned) [Example 6 l-isomer, l-N-(3-cyano-4-fluoro)-1-Oxo-3-pyridin-3-yl-2-(2,2,2-trifluoro-ethyl)-1,2,3,4-tetrahydro isoquinoline-4-carboxamide] |  | EC50 (listed as 6 l): 477 nM
8 | CC(C)CN1C(=O)c2ccccc2[C@H](C(=O)Nc2cccc(OC(F)(F)F)c2)[C@H]1c1cn[nH]c1 (racemic) [Example 25, 2-isobutyl-1-oxo-3-(1H-pyrazol-4-yl)-N-(3-(trifluoromethoxy)phenyl)-1,2,3,4-tetrahydroisoquinoline-4-carboxamide] | 7.96 | 
9 | CC(C)CN1C(=O)c2ccccc2[C@H](C(=O)Nc2cc(Cl)cc(C#N)c2)[C@H]1c1cn[nH]c1 (racemic) [Example 7, N-(3-chloro-5-cyanophenyl)-2-isobutyl-1-oxo-3-(1H-pyrazol-4-yl)-1,2,3,4-tetrahydroisoquinoline-4-carboxamide] | 8.52 | 
10 | N#Cc1cc(NC(=O)C2c3ccccc3C(=O)N(CC(F)(F)F)C2c2cccnc2)ccc1F (single isomer, unassigned; isomer d) [Example 6 d-isomer, d-N-(3-cyano-4-fluoro) -1-Oxo-3-pyridin-3-yl-2-(2,2,2-trifluoro-ethyl)-1,2,3,4-tetrahydro-isoquinoline-4-carboxamide] |  | pEC50: 7.77; EC50 (listed as 6 d): 15 nM
11 | N#Cc1cc(NC(=O)[C@H]2c3ccccc3C(=O)N(CC(F)(F)F)[C@@H]2c2cccnc2)ccc1F (racemic) [Example 6, N-(3-cyano-4-fluorophenyl)-1-oxo-3-(pyridin-3-yl)-2-(2,2,2-trifluoroethyl)-1,2,3,4-tetrahydroisoquinoline-4-carboxamide] | 7.27 | 
12 | CC(C)CN1C(=O)c2cc(F)ccc2[C@H](C(=O)Nc2ccc(F)c(C#N)c2)[C@H]1c1cnn(C)c1 (racemic) [Example 45, N-(3-cyano-4-fluorophenyl)-7-fluoro-2-isobutyl-3-(1-methyl-1H-pyrazol-4-yl)-1-oxo-1,2,3,4-tetrahydroisoquinoline-4-carboxamide] | 7.70 | 
13 | CC(C)CN1C(=O)c2ccccc2[C@H](C(=O)Nc2cccc(OC(F)(F)F)c2)[C@H]1c1cccnc1 (racemic) [Example 29, 2-isobutyl-1-oxo-3-(pyridin-3-yl)-N-(3-(trifluoromethoxy)phenyl)-1,2,3,4-tetrahydroisoquinoline-4-carboxamide] | 7.60 | 
14 | CC(C)CN1C(=O)c2ccccc2[C@H](C(=O)Nc2ccc(F)c(OC(F)(F)F)c2)[C@H]1c1cnn(C)c1 (racemic) [Example 33, N-(4-fluoro-3-(trifluoromethoxy)phenyl)-2-isobutyl-3-(1-methyl-1H-pyrazol-4-yl)-1-oxo-1,2,3,4-tetrahydroisoquinoline-4-carboxamide] | 7.77 | 

The next lines start with results.

Row | pEC50 (Plasmodium falciparum) | Compound | also measured
15 | 7.68 | CC(C)CN1C(=O)c2ccccc2[C@H](C(=O)Nc2cc(F)cc(C#N)c2)[C@H]1c1cnn(C)c1 (racemic) [Example 21, N-(3-cyano-5-fluorophenyl)-2-isobutyl-3-(1-methyl-1H-pyrazol-4-yl)-1-oxo-1,2,3,4-tetrahydroisoquinoline-4-carboxamide] | 
16 | 7.59 | N#Cc1cc(Cl)cc(NC(=O)[C@H]2c3ccccc3C(=O)N(CC(F)(F)F)[C@@H]2c2cn[nH]c2)c1 (racemic) [Example 8, N-(3-chloro-5-cyanophenyl)-1-oxo-3-(1H-pyrazol-4-yl)-2-(2,2,2-trifluoroethyl)-1,2,3,4-tetrahydroisoquinoline-4-carboxamide] | 
17 | 8.05 | Cn1cc([C@@H]2[C@@H](C(=O)Nc3cc(F)cc(C#N)c3)c3ccccc3C(=O)N2CC(F)(F)F)cn1 (racemic) [Example 22, N-(3-cyano-5-fluorophenyl)-3-(1-methyl-1H-pyrazol-4-yl)-1-oxo-2-(2,2,2-trifluoroethyl)-l,2,3,4-tetrahydroisoquinoline-4-carboxamide] | 
18 | 8.22 | Cn1cc([C@@H]2[C@@H](C(=O)Nc3cc(Cl)cc(C#N)c3)c3ccccc3C(=O)N2CC(F)(F)F)cn1 (racemic) [Example 10, N-(3-chloro-5-cyanophenyl)-3-(1-methyl-1H-pyrazol-4-yl)-1-oxo-2-(2,2,2-trifluoroethyl)-1,2,3,4-tetrahydroisoquinoline-4-carboxamide] | 
19 | 7.66 | O=C(Nc1ccc(F)c(OC(F)(F)F)c1)[C@H]1c2ccccc2C(=O)N(CC(F)(F)F)[C@@H]1c1cn[nH]c1 (racemic) [Example 32, N-(4-fluoro-3-(trifluoromethoxy)phenyl)-1-oxo-3-(1H-pyrazol-4-yl)-2-(2,2,2-trifluoroethyl)-1,2,3,4-tetrahydroisoquinoline-4-carboxamide] | 
20 | 7.44 | CC(C)CN1C(=O)c2ccccc2[C@H](C(=O)Nc2cccc(C#N)c2)[C@H]1c1cnn(C)c1 (racemic) [Example 15, N-(3-cyanophenyl)-2-isobutyl-3-(1-methyl-1H-pyrazol-4-yl)-1-oxo-1,2,3,4-tetrahydroisoquinoline-4-carboxamide] | 
21 | 7.70 | CC(C)CN1C(=O)c2ccccc2[C@H](C(=O)Nc2cc(Cl)cc(C#N)c2)[C@H]1c1cccnc1 (racemic) [Example 11, N-(3-chloro-5-cyanophenyl)-2-isobutyl-1-oxo-3-(pyridin-3-yl)-1,2,3,4-tetrahydroisoquinoline-4-carboxamide] | 
22 | 7.89 | CC(C)CN1C(=O)c2ccccc2[C@H](C(=O)Nc2ccc(F)c(OC(F)(F)F)c2)[C@H]1c1cn[nH]c1 (racemic) [Example 31, N-(4-fluoro-3-(trifluoromethoxy)phenyl)-2-isobutyl-1-oxo-3-(1H-pyrazol-4-yl)-1,2,3,4-tetrahydroisoquinoline-4-carboxamide] | 
23 | 7.66 | Cn1cc([C@@H]2[C@@H](C(=O)Nc3cccc(C#N)c3)c3ccccc3C(=O)N2CC(F)(F)F)cn1 (racemic) [Example 16, N-(3-cyanophenyl)-3-(1-methyl-1H-pyrazol-4-yl)-1-oxo-2-(2,2,2-trifluoroethyl)-1,2,3,4-tetrahydroisoquinoline-4-carboxamide] | 
24 | 8.10 | CC(C)CN1C(=O)c2ccccc2[C@H](C(=O)Nc2cccc(OC(F)(F)F)c2)[C@H]1c1cnn(C)c1 (racemic) [Example 27, 2-isobutyl-3-(1-methyl-1H-pyrazol-4-yl)-1-oxo-N-(3-(trifluoromethoxy)phenyl)-1,2,3,4-tetrahydroisoquinoline-4-carboxamide] | 
25 | 8.30 | CC(C)CN1C(=O)c2ccc(F)cc2[C@H](C(=O)Nc2cc(F)cc(C#N)c2)[C@H]1c1ccc(C#N)s1 (racemic) [Example 51, N-(3-cyano-5-fluorophenyl)-3-(5-cyanothiophen-2-yl)-6-fluoro-2-isobutyl-1-oxo-1,2,3,4-tetrahydroisoquinoline-4-carboxamide] | 
26 | 6.82 | COc1ccc2c(c1)C(=O)N(CC(C)C)[C@H](c1cccnc1)[C@H]2C(=O)Nc1ccc(F)c(C#N)c1 (racemic) [Example 53, N-(3-cyano-4-fluorophenyl)-2-isobutyl-7-methoxy-1-oxo-3-(pyridin-3-yl)-1,2,3,4-tetrahydroisoquinoline-4-carboxamide] | 
